# Patent US20260125426A1, “CYCLIC CELL-PENETRATING PEPTIDES AND USES THEREOF” (Ohio State Innovation Foundation, priority 2022, published 2026)
# Where “and” joins values, the source holds several entries; their conditions need not be identical. Equal entries are not always repeated.
# Legend:
# HEK293T cells = assay: Cytotoxicity, Promega CellTiter-Glo 2.0 assay, HEK293T; format: cell-based; conditions: 72 h, read-out: IC50 (concentration at which 50% of cells are nonviable)
# Experimental: (§1) Cytotoxicity of BCPs. The cytotoxicity of pBCP427-4 and BCP16 was tested 20) against HeLa and HEK293T cell lines by using Promega's Cell-Glo assay. The cells were seeded in a 96-well plate (5000 cells/well) in 100 μL of DMEM supplemented with 10% FBS and 1% penicillin/streptomycin. The following day. 10 μL of peptide of various concentrations was added to the cells. A row of wells was treated with DMSO as a control. After 72 h, all wells were treated with an equal volume (110 μL) of Promega CellTiter-Glo 2.0 assay solution and shaken for 30 min. Luminescent signal was measured on a Tecan Infinite Pro plate reader.
# HeLa cells [1] = assay: Cytotoxicity, Promega CellTiter-Glo 2.0 assay, HeLa; format: cell-based; conditions: 72 h, read-out: IC50 (concentration at which 50% of cells are nonviable)
# Experimental: as §1
# [2] = test system: intracellular Keap1-Nrf2 interaction; assay: ARE reporter-HepG2 luciferase assay of CPP/BCP-K1 conjugates; format: cell-based; conditions: ARE-Reporter HepG2 cells, 10 μM peptide, 18 h
# Experimental: Cytosolic Delivery of Peptidyl Cargo. […] An important role of Nrf2-ARE pathway in the cellular defense mechanism. Journal of biochemistry and molecular biology, 37(2), 139-1438). Under basal conditions, Nrf2 interacts with Keap1 and is retained in the cytosol or degraded by the proteasome. However, upon blocking the Keap1-Nrf2 interaction, Nrf2 accumulates and translocates into the nucleus, inducing the expression of luciferase.
# One hundred μL of ARE-Reporter Hep G2 cells were seeded in a 96-well plate at 5000 cells/well in minimum essential media supplemented with 10% FBS and 1% penicillin/streptomycin. The following day, 10 μL of peptide of various concentrations was added to the cells to give final concentrations of 0.625-10 μM. Cells treated with DMSO were used as a control. After 18 h, the cells were treated with an equal volume (110 μL) of BPS bioscience ONE-Step luciferase assay solution and shaken for 30 min. The luminescent signal was measured on a Tecan Infinite Pro plate reader.
# Keap1 = Keap1 (Homo sapiens, UniProt Q14145); conditions: read-out: KD for Keap1; cited from earlier work
# Keap1, sequence (Q14145 whole entry, species assumed): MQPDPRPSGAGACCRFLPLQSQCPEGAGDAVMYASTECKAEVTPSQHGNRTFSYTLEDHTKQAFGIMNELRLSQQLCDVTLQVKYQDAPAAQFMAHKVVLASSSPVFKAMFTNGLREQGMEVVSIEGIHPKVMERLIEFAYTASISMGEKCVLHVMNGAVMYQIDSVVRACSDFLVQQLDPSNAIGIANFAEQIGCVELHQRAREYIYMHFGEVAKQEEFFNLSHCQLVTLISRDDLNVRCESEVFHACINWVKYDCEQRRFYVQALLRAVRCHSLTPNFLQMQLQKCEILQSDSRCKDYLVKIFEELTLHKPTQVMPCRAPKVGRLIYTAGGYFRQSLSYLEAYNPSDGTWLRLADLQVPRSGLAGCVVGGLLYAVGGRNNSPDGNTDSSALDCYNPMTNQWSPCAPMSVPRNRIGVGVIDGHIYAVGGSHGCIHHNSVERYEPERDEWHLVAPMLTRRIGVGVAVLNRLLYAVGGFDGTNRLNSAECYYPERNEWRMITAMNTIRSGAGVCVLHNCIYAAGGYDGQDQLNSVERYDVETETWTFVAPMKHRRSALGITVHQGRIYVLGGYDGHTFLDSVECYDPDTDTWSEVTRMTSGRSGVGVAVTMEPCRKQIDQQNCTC
# HeLa cells [3] = assay: Live-cell confocal microscopy of HeLa cells; format: cell-based
# Experimental: Confocal microscopy. HeLa cells (5×10^5 cells/mL in 300 μL volume) were cultured overnight in DMEM (10% FBS, 1% antibiotic solution) in a Grenier Bio-One 35/10 mm glass-bottomed microwell dish with four compartments. The following day, cells were incubated with 5 μM fluorescently labeled peptide for 2 h in phenol-red free DMEM (1% FBS, 1% antibiotic solution) and washed with warm media prior to imaging. Cells were imaged on a Nikon A1R live-cell confocal laser scanning microscope (ECLIPSE Ti-E automated, inverted) equipped with a 100× oil objective (1.45 N.A.) and a heated chamber (37° C.) supplied with 5% CO2. TMR-labeled peptides were imaged by excitation with a λEx of 561 nm. Differential interference contrast (DIC) images were obtained to validate the morphology of cells.
# The cellular entry of BCP1-3 was further confirmed by live-cell confocal microscopy. HeLa cells were incubated with 5 μM TMR-labeled peptide for 2 h in the presence of 1% FBS in media. The cells were washed twice with fresh media and imaged without fixation.
# To assess cellular delivery by confocal microscopy, HeLa cells were cultured overnight in a 4-well, 35-mm glass bottom microscope dish at a density of 50,000 cells/mL (300 μL per well). The following day, the cells were washed twice with DPBS and incubated with 5 μM protein for 4 h in phenol red free DMEM with 1% FBS. […]
# HeLa cells [4] = assay: Flow cytometry of HeLa cells, cytosolic entry of NF-labeled peptides; format: cell-based; conditions: for MFI^NF (Cytosolic Entry): 1% FBS, relative to CPP12 (100%)
# Experimental: Flow cytometry. HeLa cells were cultured in 12-well plates (1.5×10^5 cells/well) overnight. The following day, cells were incubated with 5 μM fluorescently labeled peptide for 2 h in DMEM supplemented with 1% FBS and 1% antibiotic solution. DMSO was used as a negative control. After incubation, cells were detached from plate with 350 μL of 0.25% Trypsin-EDTA solution, diluted with Dulbecco's phosphate buffered saline (DPBS), and pelleted at 300 g for 5 min. Cells were washed twice with DPBS, resuspended in DPBS, and analyzed on a BD FACS LSR II flow cytometer.
# To evaluate their cell entry efficiencies, the BCPs and pBCPs were labeled with tetramethylrhodamine (TMR) or naphthofluorescein (NF) on a C-terminal lysine residue (FIGS. 2A, 2B, and 4). […] The labeled peptides were purified again by reversed-phase HPLC and their authenticity was confirmed by high-resolution mass spectrometry.
# HeLa cells were treated with 5 μM dye-labeled BCPs (or pBCPs), CPP12, Tat, or DMSO (equal volume) for 2 h at 37° C., washed to remove any peptides in the medium, and analyzed by flow cytometry. The mean fluorescence intensity (MFI) value of TMR (which is pH insensitive) reflects the total amount of CPP inside the HeLa cells (total cellular uptake). On the other hand, NF is a pH sensitive dye, having an apparent pKa of 7.8. NF is unprotonated and fluorescent inside the neutral environment of the cytosol (and nucleus) but is nearly completely protonated and nonfluorescent in the acidic environments of endosomes and lysosomes. Thus, the MFI value of NF provides a convenient estimate of the peptides that have reached the cytosol.
# Note that cell entry assays were performed by treating HeLa cell with 2 μM naphthofluorescein (NF)-labeled peptide for 2 h at 37° C. Under this condition, the BCPs enter the cell almost exclusively by endocytosis and endosomal escape. A small fraction of the CPP12^NF-treated cells (˜10%) underwent direct translocation of CPP12^NF; this fraction of highly fluorescent cells was not included in the data analysis. The cellular entry of pBCP427-4 was confirmed by live-cell confocal microscopy (FIG. 6).
# BCP16a, BCP16b, and pBCP427-4a were labeled with NF and their cytosolic entry efficiencies were assessed by flow cytometry analysis of HeLa cells after treatment with 2 μM peptide at 37° C. for 2 h. […] CPP12 was previously shown to be highly sensitive to serum proteins (Buyanova, M., et al., (2022). Discovery of a Cyclic Cell-Penetrating Peptide with Improved Endosomal Escape and Cytosolic Delivery Efficiency. Molecular pharmaceuties, 19 (5). 1378-1388).
# NIH 3T3 cells = assay: Confocal microscopy of NIH 3T3 cells; format: cell-based; conditions: 2 μM peptide, 37° C., 2 h
# Experimental: The cytosolic entry efficiencies of CPP12, BCP16a, BCP16b, and pBCP427-4a were also assessed by confocal microscopy of NIH 3T3 cells after treatment with 2 μM peptide at 37° C. for 2 h.
# [5] = Proteolytic stability in 25% human serum (UPLC-MS); format: in vitro ADME; conditions: 100 μM peptide, 25% human serum in PBS, 37° C.; read-out: Serum t1/2
# Experimental: Proteolytic Stability of BCP4, BCP16, and pBCP427-4. BCPs (100 μM) were incubated in 25% human serum diluted in phosphate-buffered saline for 24 h at 37° C. One hundred-μL aliquots were withdrawn from the mixture at various time points and mixed with 200 μL of 1:1 (v/v) 15% trichloroacetic acid in methanol and acetonitrile. The samples were centrifuged for 5 min in a microcentrifuge and stored at 4° C. until analysis by UPLC-MS equipped with a C-18 column. The column was eluted with a linear gradient of 5-100% acetonitrile in water containing 0.1% TFA over 7.5 min and the eluant was monitored at 214 nm. The area underneath the peak for any remaining BCP was integrated and compared to that at time 0 and the percentage of remaining BCP was plotted as a function of the incubation time. When integration of the UV absorbance was not possible due to overlapping of the peptide signal with that of serum proteins, the signal abundance from the mass spectrum was used to estimate the % peptide remaining.
# Proteolytic Stability of pBCP427-4 and pBCP427-4Ala. BCPs (100 μM) were incubated in 25% human serum diluted in phosphate-buffered saline for 24 h at 37° C. […] The column was eluted with a linear gradient of 5-100% acetonitrile in water containing 0.1% TFA over 7.5 min and the eluant was monitored at 214 nm.
# [6] = 2 μM NF-labeled peptide, 2 h, 37° C.
molecule,measurement,setting,value
HS-CH2-CO-rRrRCΦ(Bta)φC [BCP16],IC50,HEK293T cells,14 µM
same,IC50,HeLa cells [1],49 µM
cyclo(GQLDPETGEFL [K1],induction of luminescence signal,[2],did not
same,Kd,Keap1,0.018 µM
pBCP427-4-SEP: fusion protein of pBCP427-4 at the N-terminus of superecliptic-pHluorin (SEQ ID NO: 89) (MGSSGSSCWSNWFCFQRRC),GFP fluorescence inside the cell (protein delivery),"HeLa cells [3]; 5 μM protein, 4 h, 1% FBS",intense GFP fluorescence inside the cell
CWSNWFCFQRRC [pBCP427-4],MFI^NF (Cytosolic Entry),HeLa cells [4]; [6],189% and 189 ± 6%
same,improvement of cytosolic entry efficiency by bismuth cyclization,"HeLa cells [4]; 2 μM, pBCP427-4 vs pBCP427-4Ala",~10 fold
same,IC50,HEK293T cells,16 µM
same,IC50,HeLa cells [1],> 50 µM
same,cellular entry seen by live-cell confocal microscopy,"HeLa cells [3]; 2 or 5 μM TMR-labeled peptide, 2 h, 37° C.",confirmed
Ac-cwsnwfcfqrrc [pBCP427-4a],MFI^NF (Cytosolic Entry),HeLa cells [4]; [6],33% and 33 ± 1%
same,cytosolic entry efficiency in the presence of 10% FBS,"HeLa cells [4]; 2 μM NF-labeled peptide, 2 h, 37° C., 10% FBS, relative to CPP12",85%
same,"cytosolic entry by fluorescence intensity, compared with CPP12",NIH 3T3 cells,less active than CPP12
CC(=O)N[C@@H](Cc1ccc(O)cc1)C(=O)NCC(=O)N[C@@H](CCCNC(=N)N)C(=O)N[C@@H](CCCCN)C(=O)N[C@@H](CCCCN)C(=O)N[C@@H](CCCNC(=N)N)C(=O)N[C@@H](CCCNC(=N)N)C(=O)N[C@@H](CCC(N)=O)C(=O)N[C@@H](CCCNC(=N)N)C(=O)N[C@@H](CCCNC(=N)N)C(=O)N[C@@H](CCCNC(=N)N)C(=O)NCCOCCOCC(=O)N[C@@H](CCCCNC(=O)c1ccc2c(c1)C(=O)OC21c2ccc3cc(O)ccc3c2Oc2c1ccc1cc(O)ccc21)C(N)=O [Tat],half-life at 100 μM,[5],< 30 min
